Measurements from patent US5086071A, “2,5,6,7-tetranor-4,8-inter-m-phenylene PGI2 derivatives” (Toray Industries, Inc., priority 1989, dated 1992).
In brackets after ≈: the same amount, converted by molar mass.

Legend:
stomach = assay: Gastric Cytoprotection (0.2N NaOH-induced stomach lesion, ulcer index); type: in vivo; settings: test compound 30 minutes before oral 0.2N NaOH; killed one hour later; read-out: ED50 (dose which reduces an ulcer index by 50% of that in a control animal)
Experimental: Gastric cytoprotection was measured according to the method of A. Robert, et al. (Gastroenterlogy 77 (3), 443 (1979).
Thirty minutes later after the test compound was administered, the animals were given orally 0.2N NaOH and killed one hour later by chloroform anesthesia.
The stomach was taken out, fixed with 5% formalin solution, and opened along greater curvature.
The length of the lesion brought about in the stomach is measured and expressed in terms of the ulcer index. Gastric cytoprotection activity is expressed in Table 1 below as an ED50 value (dose in μg/Kg which reduces an ulcer index by 50% of that in a control animal (ulcer index: 100%)).

gastric acid secretion = assay: Gastric Acid Secretion Inhibition (pentagastrin-stimulated, perfused stomach); type: in vivo, rat (male SD rats); settings: intravenous; pentagastrin 0.05 μg/Kg/min; relative to PGE2 set as 1
Experimental: Male SD rats were operated by means of ventrotomy under urethane anesthesia. A double cannula was inserted into the fundus of the rat. The stomach lumen was continuously perfused with a physiological saline solution. The perfusate was drawn into the pH meter to continuously measure its pH (M. Ghosh, H. Schild, Br. J. Pharmacol. 13, 54 (1958)).
Pentagastrin was infused continuously at a rate of 0.05 μg/Kg/min. to stimulate gastric acid secretion.
The test compounds were injected intravenuously into the femoral vein when the pH reached a steady state at about 4.0.
Gastric acid secretion inhibition activity is calculated from the area made by pH augmentation against time.
The potency of the compounds is compared and expressed in terms of PGE2 ratio where PGE2 is set as 1.

platelet aggregation = assay: Inhibiting Effect of Platelet Aggregation (ADP-induced, human platelet rich plasma); type: cell-based; settings: human PRP, ADP 10 μM, test compound added one minute prior to ADP, read-out: ED50 (text: IC50), inhibition of platelet aggregation
Experimental: Blood collected from human intermediate cubital vein was centrifuged at 800 rpm for 10 minutes. The supernatant was taken out as platelet rich plasma (PRP). Aliquots of PRP were dispensed into test tubes to which […] (ADP) was added (final concentration: 10 μM) to induce platelet aggregation. The extent of platelet aggregation is determined by an aggregometer (Rika Denki, Tokyo) as a change of turbidity. The test compound is added in one minute prior to the addition pf ADP. IC50 values are calculated as a concentration of test compound which inhibits platelet aggregation by 50%.

[1] = neutral aqueous solution; cited from earlier work
[2] = cited from earlier work

Compound	IC50 (platelet aggregation)	ED50 (stomach)	Gastric Antisecretory Activity, Relative Potency Ratio [PGE2 = 1.0] (gastric acid secretion)	stability [1]	duration of physiological activities in vivo [2]	metabolism in vivo [2]
O=C(O)/C=C/c1cccc2c1O[C@H]1C[C@@H](O)[C@H](/C=C/[C@@H](O)c3ccccc3)[C@@H]21 [Compound 37, d-(3E)-15-phenyl-2,5,6,7,16,17,18,19,20-nonanor-3,4-didehydro-4,8-inter-m-phenylene PGI2]	0.56 ng/mL (≈ 1.48 nM)	0.83 µg/kg	83	–	–	–
O=C(O)/C=C/c1cccc2c1O[C@H]1C[C@@H](O)[C@H](/C=C/[C@@H](O)c3ccc(Cl)cc3)[C@@H]21 [Compound 40, d-(3E)-15-(p-chlorophenyl)-2,5,6,7,16,17,18,19,20-nonanor-3,4-didehydro-4,8-inter-m-phenylene PGI2]	–	0.46 µg/kg	–	–	–	–
O=C(O)/C=C/c1cccc2c1O[C@H]1C[C@@H](O)[C@H](/C=C/[C@@H](O)c3cccc(F)c3)[C@@H]21 [Compound 43, d-(3E)-15-(m-fluorophenyl)-2,5,6,7,16,17,18,19,20-nonanor-3,4-didehydro-4,8-inter-m-phenylene PGI2]	–	0.39 µg/kg	–	–	–	–
CC(C)(c1ccccc1)[C@H](O)/C=C/[C@@H]1[C@H]2c3cccc(/C=C/C(=O)O)c3O[C@H]2C[C@H]1O [Compound 51, d-(3E)-16-methyl-16-phenyl-2,5,6,7,18,19,20-heptanor-3,4-didehydro-4,8-inter-m-phenylene PGI2]	1800 ng/mL (≈ 4280 nM)	–	–	–	–	–
O=C(O)/C=C/c1cccc2c1O[C@H]1C[C@@H](O)[C@H](/C=C/[C@@H](O)C3CCCC3)[C@@H]21 [Compound 57, d-(3E)-15-cyclopentyl-2,5,6,7,16,17,18,19,20-nonanor-3,4-didehydro-4,8-inter-m-phenylene PGI2]	–	5.07 µg/kg	–	–	–	–
O=C(O)/C=C/c1cccc2c1O[C@H]1C[C@@H](O)[C@H](/C=C/[C@@H](O)C3CCCCC3)[C@@H]21 [Compound 60, d-(3E)-15-cyclohexyl-2,5,6,7,16,17,18,19,20-nonanor-3,4-didehydro-4,8-inter-m-phenylene PGI2]	0.35 ng/mL (≈ 0.91 nM)	0.88 µg/kg	14	–	–	–
CCOCC(C)(C)[C@H](O)/C=C/[C@@H]1[C@H]2c3cccc(/C=C/C(=O)O)c3O[C@H]2C[C@H]1O [Compound 72, d-(3E)-16,16-dimethyl-2,5,6,7-tetranor-18-oxa-3,4-didehydro-4,8-inter-m-phenylene PGI2]	100 ng/mL (≈ 248 nM)	2.7 µg/kg	9	–	–	–
O=C(O)/C=C/c1cccc2c1O[C@H]1C[C@@H](O)[C@H](/C=C/[C@@H](O)COc3ccccc3)[C@@H]21 [Compound 75, d-(3E)-16-phenoxy-2,5,6,7,17,18,19,20-octanor-3,4-didehydro-4,8-inter-m-phenylene PGI2]	29 ng/mL (≈ 71 nM)	0.89 µg/kg	73	–	–	–
C[C@@H](Oc1ccccc1)[C@H](O)/C=C/[C@@H]1[C@H]2c3cccc(/C=C/C(=O)O)c3O[C@H]2C[C@H]1O [Compound 77, d-(3E,16R)-16-phenoxy-2,5,6,7,18,19,20-heptanor-3,4-didehydro-4,8-inter-m-phenylene PGI2]	14 ng/mL (≈ 33.1 nM)	0.4 µg/kg	83	–	–	–
CC(C)(Oc1ccccc1)[C@H](O)/C=C/[C@@H]1[C@H]2c3cccc(/C=C/C(=O)O)c3O[C@H]2C[C@H]1O [Compound 79, d-(3E)-16-methyl-16-phenoxy-2,5,6,7,18,19,20-heptanor-3,4-didehydro-4,8-inter-m-phenylene PGI2]	–	0.5 µg/kg	112	–	–	–
CCCCC[C@H](O)/C=C/[C@@H]1[C@H]2C/C(=C/CCCC(=O)O)O[C@H]2C[C@H]1O [PGI2, Prostaglandin I2]	–	–	–	extremely unstable even in neutral aqueous solution	only short duration of physiological activities in vivo	metabolized quickly in vivo

The next lines start with results.

IC50 (platelet aggregation)	Compound	ED50 (stomach)	Gastric Antisecretory Activity, Relative Potency Ratio [PGE2 = 1.0] (gastric acid secretion)	stability [1]	duration of physiological activities in vivo [2]	metabolism in vivo [2]
0.4 ng/mL (≈ 1.07 nM)	CCCCC[C@H](O)/C=C/[C@@H]1[C@H]2c3cccc(/C=C/C(=O)O)c3O[C@H]2C[C@H]1O [Compound 24, d-(3E)-2,5,6,7-tetranor-3,4-didehydro-4,8-inter-m-phenylene PGI2]	21.4 µg/kg	23	–	–	–
1.6 ng/mL (≈ 4.14 nM)	CCCCC(C)[C@H](O)/C=C/[C@@H]1[C@H]2c3cccc(/C=C/C(=O)O)c3O[C@H]2C[C@H]1O (stereo partly drawn) [Compound 28, d-(3E)-16-methyl-2,5,6,7-tetranor-3,4-didehydro-4,8-inter-m-phenylene PGI2]	0.26 µg/kg	55	–	–	–
0.14 ng/mL (≈ 0.35 nM)	CCCC[C@H](C)C[C@H](O)/C=C/[C@@H]1[C@H]2c3cccc(/C=C/C(=O)O)c3O[C@H]2C[C@H]1O [Compound 31, d-(3E, 17S)-17-methyl-20a-homo-2,5,6,7-tetranor-3,4-didehydro-4,8-inter-m-phenylene PGI2]	–	–	–	–	–
45 ng/mL (≈ 112 nM)	CCCCC(C)(C)[C@H](O)/C=C/[C@@H]1[C@H]2c3cccc(/C=C/C(=O)O)c3O[C@H]2C[C@H]1O [Compound 34, d-(3E)-16,16-dimethyl-2,5,6,7-tetranor-3,4-didehydro-4,8-inter-m-phenylene PGI2]	1.6 µg/kg	36	–	–	–
0.58 ng/mL (≈ 1.55 nM)	CCCOC[C@H](O)/C=C/[C@@H]1[C@H]2c3cccc(/C=C/C(=O)O)c3O[C@H]2C[C@H]1O [Compound 69, d-(3E)-2,5,6,7-tetranor-17-oxa-3,4-didehydro-4,8-inter-m-phenylene PGI2]	6.5 µg/kg	10	–	–	–
